# Reference: patent publication US20210236698A1, “ANTIMICROBIAL LOCKING SOLUTIONS COMPRISING TAURINAMIDE DERIVATIVES AND BIOLOGICALLY ACCEPTABLE SALTS AND ACIDS, WITH THE ADDITION OF SMALL CONCENTRATIONS OF HEPARIN” (ND Partners, LLC, priority 2004, published 2021)
# Tests used:
# [1] = tested on: red cells; assay type: cell-based
# From the text: The trial results by Dr Allon were examined by researchers in a group of experiments at the Naval Blood Laboratory and Boston University Medical School. […] However, the researchers were not able to determine exactly how their results were relevant to the findings in the University of Alabama clinical trial.
# [2] = Biocidal effectiveness of taurolidine solution with citrate/citric acid pH adjustment; conditions: citrates and citric acid, pH of end solution in the vicinity of 5.2 to 6.5
# From the text: The concentration of taurolidine in such solutions is preferably in the range of from about 0.4 to about 5% by weight, depending upon the solubility of the compound. […] The approach creates a buffer system of citric acid/sodium citrate by adjustment of pH using sodium hydroxide. This buffer system also resists changes in the pH due to the oxidation of formaldehyde to formic acid.
# [3] = Long term stability tests of taurolidine in solution; assay type: physicochemical; conditions: citric acid and sodium citrate in combination, versus solution prepared with PVP
# From the text: In addition, citric acid is a known antioxidant. […] The composition employed in the practice of the present invention preferably also contains a pharmacologically acceptable carrier solution, such as, water, Ringer's solution, or saline.
compound,measurement,setting,value
O=S1(=O)CCN(CN2CCS(=O)(=O)NC2)CN1 [taurolidine],changes to blood in contact with solution,[1],morphological changes to red cells
same,biocidal effectiveness,[2],substantially increases
same,precipitation of solid taurolidine and reaction products from solution,[3],prevents or severely slows down
heparin,changes to blood in contact with solution,[1],did not happen
